Patent US20230406849A1, “KRAS INHIBITORS FOR TREATMENT OF CANCERS” (TYLIGAND BIOSCIENCE (SHANGHAI) LIMITED, priority 2020, published 2023)
pIC50: −log10 of the molar value. Where two headings read alike, the source gives them in different places. One block for each molecule: values may come before it.

Columns and labels:
[1] = tested on: human non-small cell lung cancer cells NCI-H358 with KRas G12C mutation; assay: NCI-H358 cell proliferation, CellTiter-Glo Luminescent Cell Viability Assay; assay type: cell-based; details: for inhibition at 1 µM: 1 μM compound, read-out: Inhibition rate % (1 μM)
Text: This assay verified the inhibitory activity of the compounds of the present disclosure on the proliferation of human non-small cell lung cancer cells NCI-H358 with KRas G12C mutation by using Promega's CellTiter-Glo® Luminescent Cell Viability Assay kit.
[Test materials]: NCI-H358 cell line (Cell Resource Center, IBMS, CAMS/PUMC, Item number: 3111C0001CCC000470), 96-well transparent flat-bottomed black-walled cell culture plate (Greiner Bio one, Cat #655096), RPMI-1640 Medium (GE, Cat #SH30809.01), Fetal Bovine Serum FBS (Thermo Fisher, Cat #10099-141), CellTiter-Glo® Luminescent Cell Viability Assay Kit (Promega, Cat #G7573), PBS (Solarbio, Cat #P1020), Trypsin (Thermo Fisher, Cat #25200072), DMSO (Sigma, Cat #D2650), Methyl cellulose (SIGMA, Cat #9004-67-5).
[Experimental procedure]: 180 μL of cell suspension (RPMI1640 solution with 10% FBS and 1% methyl cellulose) was charged to a 96-well cell culture plate at a density of 1500 cells/well. A control group containing no cells, no compounds and only 3D complete medium (RPMI 1640 solution with 1! Methyl cellulose and 10% FBS) (i.e. culture medium control) and a control group containing no compounds but cells (i.e. cell control) were set. AMG510 or the following reference compounds were used as positive controls. The cell plate was placed in a cell incubator overnight. A 10-fold drug solution (RPMI1640 solution with 10% FBS and 1% DMSO) was prepared at a concentration of 10 μM, and 20 μL of this solution was added to each well of the 96-well plate seeded with cells, so that the final concentration of the compounds in each well was 1 μM, and the DMSO concentration […] replicate wells were set up for each compound. The solutions of AMG510 or the following reference compounds were prepared in the same way and added to the positive control wells. The cell plate was placed in a cell incubator and cultured for 120 h. For endpoint detection, the CellTiter-Glo reagent was melted, and the cell plate was moved to room temperature to equilibrate for 30 minutes, added with 100 µL of CellTiter-Glo to each well, and shaken on an orbital shaker for 5 minutes to fully lyse the cells. The plate was kept at room temperature for 20 minutes to stabilize the luminescence signal, and the luminescence value of each well was full wavelength scanned with a multi-functional microplate reader (Molecular Devices, Spectramax M3 microplate reader).
[Test samples] The compounds of Examples 1-39, and reference compound A
[Data Analysis] The following formula was used to calculate the cell inhibition rate under the action of each concentration of the compounds:
Inhibition rate %=[1−(LumDrug to be tested−LumCulture medium control)/(LumCell control−LUMCulture medium control)]×100%
IC50 values were calculated using GraphPad Prism 7.0 software, nonlinear Sigmoidal regression was used to fit the data to obtain a dose-response curve.

[2] = Cassette pharmacokinetic experiment in rats (IV); assay type: in vivo; details: rat, plasma, 1 mg/kg, male SD rats, tail vein IV, 1 mg/mL each compound at 1 mL/kg
Text: 2.1 Pharmacokinetic Properties of Some Compounds of the Present Disclosure Evaluated by Cassette Pharmacokinetic Experiments in Rats.
[Test materials]: Male SD rats, age: 6-8 weeks, body weight 220-250 g, purchased from Zhaoyan (Suzhou) New Drug Research Center Co., Ltd.; Tolbutamide (Aladdin, Cat #H1401054); Sulfobutyl-(Captisol, Shandong Binzhou Zhiyuan Biological Technology Co., Ltd, Cat #20191013); Propylene glycol (15)-stearate (Solutol, Meilun Bio, Cat #50206A); DMSO (Vetec Company, Cat #WXBD0293V); acetonitrile (Sigma-Aldrich, Cat #WXBD1744V); Methanol (Sigma-Aldrich, Cat #WXBD2831V).
[Experimental procedure]: The compound combination was prepared in a solvent of 5% DMSO/10% Solutol/85% (20% Captisol), and the final concentration of each compound was 1 mg/mL. The SD rats were treated with the compound preparation in 1 mL/kg by tail vein IV injection, and blood samples were collected at the time points of 5 min, 15 min, 30 min, 1 h, 2 h, 4 h, 8 h, and 24 h via external jugular vein puncture, centrifuged at low temperature for 20 minutes to collect plasma samples, which were stored at −80° C. until analysis.
[Sample analysis]: Establishing LC-MS/MS compound analysis method
Standard curve preparation: 20 μL of lmg/mL DMSO stock solution for each compound was aspirated and transferred to […] of 50% methanol working solution, and the resulting solution was serially diluted to obtain a standard curve working solution with concentrations of 20000, 10000, 5000, 1000, 500, 100, 50, 20 and […]. Then 5 µL of this standard curve working solution was mixed with 45 μL rat blank plasma to give a standard curve with concentrations of 2000, 1000, 500, 100, 50, 10, 2 and 1 ng/mL for quantification of unknown samples.
Sample pretreatment: 50 μL of unknown plasma sample or standard curve sample was mixed with 250 μL of acetonitrile containing internal standard as a precipitant. The plasma protein was precipitated, extracted for test compounds, and centrifuged at low temperature for 20 minutes. The supernatant was taken, mixed with 0.1% formic acid aqueous solution, and 5 μL of the resulting solution was aspirated for blood concentration analysis.
[Data processing]: A standard curve was plotted using mass spectrometry software, to quantify unknown samples, and pharmacokinetic parameters are calculated by Winnonlin 8.2 using the drug concentration of unknown samples at each time point.

pIC50 ([1]; 120 h, read-out: IC50): 8.05 | pIC50 ([1]; read-out: IC50 value): > 7.70
Structure (SMILES): C=CC(=O)N1CCN(c2c(C#N)c(-c3cccc(CN(C)C)c3)nc3c(F)c(-c4ccc(F)c5sc(N)nc45)c(Cl)cc23)CC1 [Example 3, 4-(4-Acryloylpiperazin-1-yl)-7-(2-amino-7-fluorobenzo[d]thiazol-4-yl)-6-chloro-2-(3-((dimethylamino)methyl)phenyl)-8-fluoroquinoline-3-carbonitrile]
inhibition at 1 µM ([1]; 120 h): 97.7%

pIC50 ([1]; 120 h, read-out: IC50): 7.28
Structure (SMILES): C=CC(=O)N1CCN(c2c(C#N)c(-c3ccnn3CCN(C)C)nc3c(F)c(-c4ccc(F)c5sc(N)nc45)c(Cl)cc23)CC1 [Example 4, 4-(4-Acryloylpiperazin-1-yl)-7-(2-amino-7-fluorobenzo[d]thiazol-4-yl)-6-chloro-2-(1-(2-(dimethylamino)ethyl)-1H-pyrazol-5-yl)-8-fluoroquinoline-3-carbonitrile]
inhibition at 1 µM ([1]; 120 h): 94.8%

pIC50 ([1]; 120 h, read-out: IC50): 8.15 | pIC50 ([1]; read-out: IC50 value): > 7.70
Structure (SMILES): C=CC(=O)N1CCN(c2c(C#N)c(-c3cccc(C(C)N(C)C)c3)nc3c(F)c(-c4ccc(F)c5sc(N)nc45)c(Cl)cc23)CC1 (stereo not drawn) [Example 5, 4-(4-Acryloylpiperazin-1-yl)-7-(2-amino-7-fluorobenzo[d]thiazol-4-yl)-6-chloro-2-(3-(1-(dimethylamino)ethyl)phenyl)-8-fluoroquinoline-3-carbonitrile]
inhibition at 1 µM ([1]; 120 h): 94.9%

pIC50 ([1]; 120 h, read-out: IC50): 7.77 | pIC50 ([1]; read-out: IC50 value): > 7.70
Structure (SMILES): C=CC(=O)N1CCN(c2c(C#N)c(-c3cccc(CN(C)C)c3)nc3c(F)c(-c4ccc(F)c5sc(N)nc45)c(Cl)cc23)C[C@H]1C [Example 6, 4-((R)-4-acryloyl-3-methylpiperazin-1-yl)-7-(2-amino-7-fluorobenzo[d]thiazol-4-yl)-6-chloro-2-(3-((dimethylamino)methyl)phenyl)-8-fluoroquinoline-3-carbonitrile]
inhibition at 1 µM ([1]; 120 h): 95%

pIC50 ([1]; 120 h, read-out: IC50): 6.59
Structure (SMILES): C=CC(=O)N1CCN(c2c(C#N)c(-c3ccnn3CCN(C)C)nc3c(F)c(-c4ccc(F)c5sc(N)nc45)c(Cl)cc23)C[C@H]1C [Example 7, 4-((R)-4-acryloyl-3-methylpiperazin-1-yl)-7-(2-amino-7-fluorobenzo[d]thiazol-4-yl)-6-chloro-2-(1-(2-(dimethylamino)ethyl)-1H-pyrazol-5-yl)-8-fluoroquinoline-3-carbonitrile]
inhibition at 1 µM ([1]; 120 h): 90%

AUC(0-t) [2]: 1100 ng·h/mL | clearance [2]: 15.1 mL/min/kg | half-life [2]: 1.58 h
Structure (SMILES): C=CC(=O)N1CCN(c2c(C#N)c(-c3ccnn3C)nc3c(F)c(-c4ccc(F)c5sc(N)nc45)c(Cl)cc23)CC1 [Example 14, 4-(4-Acryloylpiperazin-1-yl)-7-(2-amino-7-fluorobenzo[d]thiazol-4-yl)-6-chloro-8-fluoro-2-(1-methyl-1H-pyrazol-5-yl)quinoline-3-carbonitrile]

pIC50 ([1]; read-out: IC50 value): > 7.30
Structure (SMILES): C=CC(=O)N1CCN(c2c(C#N)c(C)nc3c(F)c(-c4ccc(F)c5sc(N)nc45)c(Cl)cc23)C[C@@H]1CC#N [Example 32]

More lines, now with the values behind:

Structure (SMILES): C=CC(=O)N1CCN(c2c(C#N)c(OC)nc3c(F)c(-c4ccc(F)c5sc(N)nc45)c(Cl)cc23)CC1 [Example 13, 4-(4-Acryloylpiperazin-1-yl)-7-(2-amino-7-fluorobenzo[d]thiazol-4-yl)-6-chloro-8-fluoro-2-methoxyquinoline-3-carbonitrile]
AUC(0-t) [2]: 1950 ng·h/mL | clearance [2]: 8.58 mL/min/kg | half-life [2]: 1.37 h

Structure (SMILES): C=CC(=O)N1CCN(c2c(C#N)c(-c3cn(C)nc3C)nc3c(F)c(-c4ccc(F)c5sc(N)nc45)c(Cl)cc23)CC1 [Example 15, 4-(4-Acryloylpiperazin-1-yl)-7-(2-amino-7-fluorobenzo[d]thiazol-4-yl)-6-chloro-2-(1,3-dimethyl-1H-pyrazol-4-yl)-8-fluoroquinoline-3-carbonitrile]
AUC(0-t) [2]: 717 ng·h/mL | clearance [2]: 23.3 mL/min/kg | half-life [2]: 1.03 h

Structure (SMILES): C=C(F)C(=O)N1CCN(c2c(C#N)cnc3c(F)c(-c4ccc(F)c5sc(N)nc45)c(Cl)cc23)CC1 [Example 16, 7-(2-Amino-7-fluorobenzo[d]thiazol-4-yl)-6-chloro-8-fluoro-4-(4-(2-fluoroaryloxy)piperazin-1-yl)quinoline-3-carbonitrile]
AUC(0-t) [2]: 2790 ng·h/mL | clearance [2]: 5.93 mL/min/kg | half-life [2]: 3.5 h

Structure (SMILES): C=CC(=O)N1CCN(c2c(C#N)c(C)nc3c(F)c(-c4ccc(F)c5sc(N)nc45)c(Cl)cc23)CC1 [Example 17, 4-(4-Acryloylpiperazin-1-yl)-7-(2-amino-7-fluorobenzo[d]thiazol-4-yl)-6-chloro-8-fluoro-2-methylquinoline-3-carbonitrile]
pIC50 ([1]; read-out: IC50 value): > 7.30

Structure (SMILES): C=CC(=O)N1CCN(c2c(C#N)c(N)nc3c(F)c(-c4ccc(F)c5sc(N)nc45)c(Cl)cc23)CC1 [Example 20, 4-(4-Acryloylpiperazin-1-yl)-2-amino-7-(2-amino-7-fluorobenzo[d]thiazol-4-yl)-6-chloro-8-fluoroquinoline-3-carbonitrile]
pIC50 ([1]; read-out: IC50 value): > 7.30

Structure (SMILES): C=CC(=O)N1CCN(c2c(C#N)c(N)nc3c(F)c(-c4cccc5sc(N)nc45)c(Cl)cc23)CC1 [Example 33, 4-(4-Acryloylpiperazin-1-yl)-2-amino-7-(2-aminobenzo[d]thiazol-4-yl)-6-chloro-8-fluoroquinoline-3-carbonitrile]
pIC50 ([1]; read-out: IC50 value): > 7.30

Structure (SMILES): C=CC(=O)N1CCN(c2c(C#N)c(N)nc3c(F)c(-c4c(F)ccc5sc(N)nc45)c(Cl)cc23)CC1 [Example 34, 4-(4-Acryloylpiperazin-1-yl)-2-amino-7-(2-amino-5-fluorobenzo[d]thiazol-4-yl)-6-chloro-8-fluoroquinoline-3-carbonitrile]
pIC50 ([1]; read-out: IC50 value): > 7.30

Structure (SMILES): C=CC(=O)N1CCN(c2c(C#N)c(NC(C)=O)nc3c(F)c(-c4ccc(F)c5sc(N)nc45)c(Cl)cc23)CC1 [Example 37, N-(4-(4-acryloylpiperazin-1-yl)-7-(2-amino-7-fluorobenzo[d]thiazol-4-yl)-6-chloro-3-cyano-8-fluoroquinolin-2-yl)acetamide]
pIC50 ([1]; read-out: IC50 value): > 7.30

Structure (SMILES): C=CC(=O)N1CCN(c2c(C#N)cnc3c(OC)c(-c4ccc(F)c5sc(N)nc45)c(Cl)cc23)CC1 [Example 39, 4-(4-Acryloylpiperazin-1-yl)-7-(2-amino-7-fluorobenzo[d]thiazol-4-yl)-6-chloro-8-methoxy quinoline-3-carbonitrile]
pIC50 ([1]; read-out: IC50 value): > 7.70

Structure (SMILES): C=CC(=O)N1CCN(c2c(C#N)cnc3c(F)c(-c4c(C)ccc5[nH]ncc45)c(Cl)cc23)CC1 [Ref. Comp. B, reference compound]
pIC50 ([1]; 120 h, read-out: IC50): 6.46
